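Grown in 96-well plates, cells were treated for 48 hours with each compound at five concentrations. Insufficient inhibition: endpoint recorded as highest concentration tested. GI50 = concentration required for 50% inhibition of growth. TGI denotes the concentration required for complete inhibition of growth.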
Key:
Assay in all cases: inhibition of tumour cell growth, NCI panel, 48 h
EKVX NSCLC = tested on: EKVX NSCLC
HCT-116 colon = tested on: HCT-116 colon
K-562 leukemia = tested on: K-562 leukemia
SK-MEL-28 melanoma = tested on: SK-MEL-28 melanoma
HOP-92 NSCLC = tested on: HOP-92 NSCLC
SF-295 CNS = tested on: SF-295 CNS
OVCAR-3 ovarian = tested on: OVCAR-3 ovarian
SN12C renal = tested on: SN12C renal
OVCAR-5 ovarian = tested on: OVCAR-5 ovarian
HS 578T breast = tested on: HS 578T breast
NCI/ADR-RES ovarian = tested on: NCI/ADR-RES ovarian
SK-MEL-5 melanoma = tested on: SK-MEL-5 melanoma
786-0 renal = tested on: 786-0 renal
U251 CNS = tested on: U251 CNS
PC-3 prostate = tested on: PC-3 prostate
HT29 colon = tested on: HT29 colon
IGROV1 ovarian = tested on: IGROV1 ovarian
OVCAR-8 ovarian = tested on: OVCAR-8 ovarian
OVCAR-4 ovarian = tested on: OVCAR-4 ovarian
MDA-MB-231 breast = tested on: MDA-MB-231 breast
M14 melanoma = tested on: M14 melanoma
MALME-3M melanoma = tested on: MALME-3M melanoma
ACHN renal = tested on: ACHN renal
UO-31 renal = tested on: UO-31 renal
MCF7 breast = tested on: MCF7 breast
UACC-257 melanoma = tested on: UACC-257 melanoma
MOLT-4 leukemia = tested on: MOLT-4 leukemia
RXF 393 renal = tested on: RXF 393 renal
NCI-H522 lung = tested on: NCI-H522 lung
SNB-19 CNS = tested on: SNB-19 CNS
SF-268 CNS = tested on: SF-268 CNS
CCRF-CEM leukemia = tested on: CCRF-CEM leukemia
DU-145 prostate = tested on: DU-145 prostate
NCI-H226 lung = tested on: NCI-H226 lung
RPMI-8226 leukemia = tested on: RPMI-8226 leukemia
KM12 colon = tested on: KM12 colon
CAKI-1 renal = tested on: CAKI-1 renal
TK-10 renal = tested on: TK-10 renal
SF-539 CNS = tested on: SF-539 CNS
SK-MEL-2 melanoma = tested on: SK-MEL-2 melanoma
UACC-62 melanoma = tested on: UACC-62 melanoma
HCC-2998 colon = tested on: HCC-2998 colon
BT-549 breast = tested on: BT-549 breast
A498 renal = tested on: A498 renal
LOX IMVI melanoma = tested on: LOX IMVI melanoma
T-47D breast = tested on: T-47D breast
HOP-62 NSCLC = tested on: HOP-62 NSCLC
NCI-H23 lung = tested on: NCI-H23 lung
HCT-15 colon = tested on: HCT-15 colon
SR leukemia = tested on: SR leukemia
COLO 205 colon = tested on: COLO 205 colon
MDA-MB-468 breast = tested on: MDA-MB-468 breast
SK-OV-3 ovarian = tested on: SK-OV-3 ovarian
A549 NSCLC = tested on: A549 NSCLC
NCI-H460 lung = tested on: NCI-H460 lung
MDA-MB-435 = tested on: MDA-MB-435

COc1ccc(C(=O)/C=C/c2cccc(Br)c2)cc1S(N)(=O)=O showed a GI50 (EKVX NSCLC) of 5.24 µM, a TGI (EKVX NSCLC) of 18.5 µM and a GI50 (HCT-116 colon) of 1.04 µM. The TGI (HCT-116 colon) was 2.21 µM, the GI50 (K-562 leukemia) was 1.35 µM and the TGI (K-562 leukemia) was 4.41 µM. It also gave a GI50 (SK-MEL-28 melanoma) of 2.15 µM, a TGI (SK-MEL-28 melanoma) of 5.46 µM and a GI50 (HOP-92 NSCLC) of 1.8 µM. The TGI (HOP-92 NSCLC) was 11.8 µM, the GI50 (SF-295 CNS) was 2.09 µM and the TGI (SF-295 CNS) was 6.44 µM. For the same compound, the GI50 (OVCAR-3 ovarian) was 1.29 µM, the TGI (OVCAR-3 ovarian) was 3.17 µM and the GI50 (SN12C renal) was 1.44 µM. It also gave a TGI (SN12C renal) of 3.48 µM, a GI50 (OVCAR-5 ovarian) of 1.74 µM and a TGI (OVCAR-5 ovarian) of 4.25 µM. It also gave a GI50 (HS 578T breast) of 16 µM, a TGI (HS 578T breast) of 68.6 µM and a GI50 (NCI/ADR-RES ovarian) of 2.21 µM. It also gave a TGI (NCI/ADR-RES ovarian) of 7.13 µM, a GI50 (SK-MEL-5 melanoma) of 2.31 µM and a TGI (SK-MEL-5 melanoma) of 6.38 µM. The GI50 (786-0 renal) was 1.63 µM, the TGI (786-0 renal) was 3.33 µM and the GI50 (U251 CNS) was 1.34 µM. For the same compound, the TGI (U251 CNS) was 2.69 µM, the GI50 (PC-3 prostate) was 2.02 µM and the TGI (PC-3 prostate) was 4.93 µM. For the same compound, the GI50 (HT29 colon) was 1.61 µM, the TGI (HT29 colon) was 3.28 µM and the GI50 (IGROV1 ovarian) was 2.24 µM. The TGI (IGROV1 ovarian) was 8.6 µM, the GI50 (OVCAR-8 ovarian) was 2.28 µM and the TGI (OVCAR-8 ovarian) was 10.6 µM. The GI50 (OVCAR-4 ovarian) was 4.08 µM, the TGI (OVCAR-4 ovarian) was 17.3 µM and the GI50 (MDA-MB-231 breast) was 2.45 µM. For the same compound, the TGI (MDA-MB-231 breast) was 6.75 µM, the GI50 (M14 melanoma) was 1.81 µM and the TGI (M14 melanoma) was 4.64 µM. It also gave a GI50 (MALME-3M melanoma) of 3.19 µM, a TGI (MALME-3M melanoma) of 14 µM and a GI50 (ACHN renal) of 1.67 µM. It also gave a TGI (ACHN renal) of 3.11 µM, a GI50 (UO-31 renal) of 1.29 µM and a TGI (UO-31 renal) of 2.7 µM. For the same compound, the GI50 (MCF7 breast) was 1.58 µM, the TGI (MCF7 breast) was 5.22 µM and the GI50 (UACC-257 melanoma) was 3.27 µM. It also gave a TGI (UACC-257 melanoma) of 14.5 µM, a GI50 (MOLT-4 leukemia) of 2.17 µM and a TGI (MOLT-4 leukemia) of 4.71 µM. It also gave a GI50 (RXF 393 renal) of 1.6 µM, a TGI (RXF 393 renal) of 3.2 µM and a GI50 (NCI-H522 lung) of 1.63 µM. The TGI (NCI-H522 lung) was 3.23 µM, the GI50 (SNB-19 CNS) was 2.91 µM and the TGI (SNB-19 CNS) was 12 µM. It also gave a GI50 (SF-268 CNS) of 3.02 µM, a TGI (SF-268 CNS) of 12.7 µM and a GI50 (CCRF-CEM leukemia) of 2.54 µM. For the same compound, the TGI (CCRF-CEM leukemia) was 6.12 µM, the GI50 (DU-145 prostate) was 3.56 µM and the TGI (DU-145 prostate) was 12.8 µM. For the same compound, the GI50 (NCI-H226 lung) was 2.81 µM, the TGI (NCI-H226 lung) was 11.4 µM and the GI50 (RPMI-8226 leukemia) was 2.05 µM. It also gave a TGI (RPMI-8226 leukemia) of 5.52 µM, a GI50 (KM12 colon) of 1.33 µM and a TGI (KM12 colon) of 3.29 µM. The GI50 (CAKI-1 renal) was 2.28 µM, the TGI (CAKI-1 renal) was 7.89 µM and the GI50 (TK-10 renal) was 2.23 µM. It also gave a TGI (TK-10 renal) of 11.9 µM, a GI50 (SF-539 CNS) of 1.69 µM and a TGI (SF-539 CNS) of 3.44 µM. The GI50 (SK-MEL-2 melanoma) was 8.73 µM, the TGI (SK-MEL-2 melanoma) was 21.9 µM and the GI50 (UACC-62 melanoma) was 1.68 µM. For the same compound, the TGI (UACC-62 melanoma) was 3.89 µM, the GI50 (HCC-2998 colon) was 1.45 µM and the TGI (HCC-2998 colon) was 2.99 µM. It also gave a GI50 (BT-549 breast) of 1.51 µM, a TGI (BT-549 breast) of 3.46 µM and a GI50 (A498 renal) of 13.8 µM. It also gave a TGI (A498 renal) of 27 µM, a GI50 (LOX IMVI melanoma) of 1.24 µM and a TGI (LOX IMVI melanoma) of 2.48 µM. It also gave a GI50 (T-47D breast) of 2.13 µM, a TGI (T-47D breast) of 6.01 µM and a GI50 (HOP-62 NSCLC) of 2.05 µM. It also gave a TGI (HOP-62 NSCLC) of 5.74 µM, a GI50 (NCI-H23 lung) of 1.77 µM and a TGI (NCI-H23 lung) of 3.43 µM. The GI50 (HCT-15 colon) was 1.01 µM, the TGI (HCT-15 colon) was 2.39 µM and the GI50 (SR leukemia) was 0.732 µM. The TGI (SR leukemia) was 3.54 µM, the GI50 (COLO 205 colon) was 1.92 µM and the TGI (COLO 205 colon) was 3.51 µM. The GI50 (MDA-MB-468 breast) was 1.39 µM, the TGI (MDA-MB-468 breast) was 2.87 µM and the GI50 (SK-OV-3 ovarian) was 4.06 µM. For the same compound, the TGI (SK-OV-3 ovarian) was 15 µM, the GI50 (A549 NSCLC) was 2.82 µM and the TGI (A549 NSCLC) was 10.2 µM. The GI50 (NCI-H460 lung) was 3.16 µM, the TGI (NCI-H460 lung) was 11.4 µM and the GI50 (MDA-MB-435) was 2.06 µM. For the same compound, the TGI (MDA-MB-435) was 7.14 µM.

Source: PubChem BioAssay (NCI)
